Patent US9012433B2, “Substituted tetracycline compounds” (Paratek Pharmaceuticals, Inc., priority 2006, dated 2015)
Values after ≈ are worked out from the molar mass of the structure shown. Where two headings read alike, the source gives them in different places.

Assays:
in vitro = assay type: cell-based
Method: Mammalian cell cytotoxicity was assessed to evaluate potential in vivo risks associated with the tetracycline compounds of the invention. A soluble, non-toxic redox dye (“Resazurin”; Alamar Blue) was used to assess a tetracycline compound's effect on cellular metabolism. At the onset of the experiment, cultures of mammalian COS-1 or CHO cells were washed, trypsinized, and harvested. […] On the next day, serial dilutions of test drug were prepared under sterile conditions and transferred to cell plates. Plates were then incubated under the above conditions for 24 hours. Following the incubation period, the media/drug was aspirated, and 50 μL of resazurin was added. Plates were then incubated under the above conditions for 2 hours and then in the dark at room temperature for an additional 30 minutes. Fluorescence measurements were taken (excitation 535 nm, emission 590 nm) and toxic effects in treated versus control cells were compared based on the degree of fluorescence in each well.

S. aureus RN450 [1] = test: In vivo anti-bacterial activity, S. aureus model; conditions: mice, 24 hours; for ED50 / responders at 5 mg/kg: Staphylococcus aureus, sc; for ED50: lethal IP S. aureus RN450, subcutaneous, read-out: PD50 (dose that protects 50% of the animals); for responders at 5 mg/kg: read-out: Percent Survival
Method: Groups of five mice were injected intraperitoneally with a lethal dose of S. aureus RN450 in a medium of mucin. Mice were evaluated at 24 hours to determine survival. […] In some instances, a dose response study was performed with the compound such that a PD50 (a dose of compound that protects 50% of the animals) could be calculated.

P. acnes ATCC 11827 = test: Antibacterial MIC, CLSI broth microdilution; assay type: cell-based; conditions: Cutibacterium acnes, ATCC11827; 35° C., 18-24 hours
Method: (§1) Grain (−) and gram (+) antibacterial minimum inhibitory concentration (MIC) values (μg/mL) were obtained using CLSI methodology for anti-bacterial susceptibility testing. On each day of testing, serial dilutions of compounds were prepared in microdilution plates using a Tecan robotic workstation. Mueller Hinton broth cultures of representative sensitive and resistant gram negative strains were grown or adjusted to match the turbidity of a 0.5 McFarland standard. 1:200 dilutions were made in an appropriate broth (cation supplemented Mueller Hinton broth) to allow a final inoculum of 1×10^5 cfu. Plates were incubated at 35° C. in ambient air for 18-24 hours, were read spectrophotometrically and checked manually for evidence of bacterial growth. The lowest dilution of compound that inhibited growth was recorded as the MIC. Lysed horse blood was used to supplement broth for testing S. pneumoniae. The MIC's for each compound were assessed against S. aureus, S. pneumoniae, P. acnes, E. coli and B. theta.

S. aureus RN450 [2] = test: Antibacterial MIC, CLSI broth microdilution; assay type: cell-based; conditions: Staphylococcus aureus, RN450; 35° C., 18-24 hours
Method: as §1

P. acnes ATCC 6919 = test: Antibacterial MIC, CLSI broth microdilution; assay type: cell-based; conditions: Cutibacterium acnes, ATCC6919; 35° C., 18-24 hours
Method: as §1

E. coli ATCC 25922 = test: Antibacterial MIC, CLSI broth microdilution; assay type: cell-based; conditions: Escherichia coli, ATCC25922; 35° C., 18-24 hours
Method: as §1

E. coli MG 1655 = test: Antibacterial MIC, CLSI broth microdilution; assay type: cell-based; conditions: Escherichia coli, MG1655; 35° C., 18-24 hours
Method: as §1

[3] = tested on: B. thetaiotaomicron ATCC 29741; test: Antibacterial MIC, CLSI broth microdilution; assay type: cell-based; conditions: Bacteroides thetaiotaomicron
Method: as §1

[4] = tested on: S. pneumoniae 157E - Strep; test: Antibacterial MIC, CLSI broth microdilution; assay type: cell-based; conditions: Streptococcus pneumoniae, 157ESTREP; 35° C., 18-24 hours; lysed horse blood
Method: as §1

[5] = Half-life of oxidation, sodium periodate accelerated oxidation; assay type: physicochemical; conditions: buffer, pH 11
Method: Not to be limited by theory, it is believed that the tissue staining may be caused oxidative instability. The tetracycline compounds were subjected to accelerated oxidation in a continuous-flow microreactor using a 15 molar excess of sodium periodate at pH 11 and 22° C. Aliquots of each reaction mixture were quenched at various time points with ascorbic acid and the disappearance of each compound was determined by RP-HPLC. Pseudo first-order rate constants and t1/2 values were obtained from the plots of log (Ao-At/Ao) versus time, where Ao is the HPLC area determined for each compound at time=0 and At is the HPLC area at time=t.

[6] = ATCC29741, 35° C., 18-24 hours, read-out: MIC B. thetaiotaomicron ATCC 29741
[7] = lethal IP S. aureus RN450, single subcutaneous dose 5 mg/kg
[8] = ATCC29741, read-out: MIC B. thetaiotaomicron ATCC 29741

Row | SMILES | IC50 at 24 h (in vitro; African green monkey) | IC50 at 24 h (in vitro; Chinese hamster) | ED50 (S. aureus RN450 [1]) | MIC (P. acnes ATCC 11827) | MIC (S. aureus RN450 [2]) | MIC (P. acnes ATCC 6919) | MIC (E. coli ATCC 25922) | MIC (E. coli MG 1655) | MIC [3, 6] | MIC [4] | responders at 5 mg/kg (S. aureus RN450 [1]; [7]) | Percent Survival (S. aureus RN450 [1]; lethal IP S. aureus RN450, single subcutaneous dose 5 mg/kg, 5 mg/kg) | MIC [3, 8] | half-life [5]
1 | CN(C)[C@@H]1C(O)=C(C(N)=O)C(=O)[C@@]2(O)C(O)=C3C(=O)c4c(O)ccc(CNOCC(F)F)c4C[C@H]3C[C@@H]12 [DX] | < 35 µg/mL | 35 to 75 µg/mL (≈ 66.9 to 143 µM) | 0.58 mg/kg | < 4 µg/mL | < 4 µg/mL | < 4 µg/mL | 4 to 8 µg/mL (≈ 7.64 to 15.3 µM) | 4 to 8 µg/mL (≈ 7.64 to 15.3 µM) | < 4 µg/mL | < 4 µg/mL |  |  |  | 
2 | CN(C)[C@@H]1C(O)=C(C(N)=O)C(=O)[C@@]2(O)C(O)=C3C(=O)c4c(O)ccc(CNOCC(F)(F)F)c4C[C@H]3C[C@@H]12 [DZ] | < 35 µg/mL | < 35 µg/mL | 1.11 mg/kg | < 4 µg/mL | < 4 µg/mL | < 4 µg/mL | 4 to 8 µg/mL (≈ 7.39 to 14.8 µM) | > 8 µg/mL | < 4 µg/mL | < 4 µg/mL |  |  |  | 
3 | C[C@H]1c2cccc(O)c2C(=O)C2=C(O)[C@]3(O)C(=O)C(C(N)=O)=C(O)[C@@H](N(C)C)[C@@H]3[C@@H](O)[C@@H]21 [Doxycycline, reference compound] | > 75 µg/mL | > 75 µg/mL | 0.13 mg/kg | < 4 µg/mL | < 4 µg/mL | < 4 µg/mL | < 4 µg/mL | < 4 µg/mL |  | < 4 µg/mL | 100% | 100 (5/5) Percent | 4 to 8 µg/mL (≈ 9 to 18 µM) | 
4 | CN(C)c1ccc(O)c2c1C[C@H]1C[C@H]3[C@H](N(C)C)C(O)=C(C(N)=O)C(=O)[C@@]3(O)C(O)=C1C2=O [Minocycline, reference compound] | > 75 µg/mL | > 75 µg/mL |  | < 4 µg/mL | < 4 µg/mL | < 4 µg/mL | < 4 µg/mL | < 4 µg/mL |  | < 4 µg/mL |  |  | 4 to 8 µg/mL (≈ 8.74 to 17.5 µM) | 8.2 s
5 | CON(C)Cc1ccc(O)c2c1C[C@H]1C[C@H]3[C@H](N(C)C)C(O)=C(C(N)=O)C(=O)[C@@]3(O)C(O)=C1C2=O [P] | > 75 µg/mL | > 75 µg/mL | 0.13 mg/kg | < 4 µg/mL | < 4 µg/mL | < 4 µg/mL | 4 to 8 µg/mL (≈ 8.2 to 16.4 µM) | 4 to 8 µg/mL (≈ 8.2 to 16.4 µM) |  | < 4 µg/mL | 100% |  | 4 to 8 µg/mL (≈ 8.2 to 16.4 µM) | 
6 | C/C(=N\OC(C)(C)C)c1cc(N)c(O)c2c1C[C@H]1C[C@H]3[C@H](N(C)C)C(O)=C(C(N)=O)C(=O)[C@@]3(O)C(O)=C1C2=O [Q, (4S,4aS,5aR,12aS)-9-Amino-7-(1-tert-butoxyimino-ethyl)-4-dimethylamino-3,10,12,12a-tetrahydroxy-1,11-dioxo-1,4,4a,5,5a,6,11,12a-octahydro-naphthacene-2-carboxylic acid amide] | < 35 µg/mL | < 35 µg/mL | 0.45 mg/kg | < 4 µg/mL | < 4 µg/mL | < 4 µg/mL | 4 to 8 µg/mL (≈ 7.37 to 14.7 µM) | 4 to 8 µg/mL (≈ 7.37 to 14.7 µM) | 4 to 8 µg/mL (≈ 7.37 to 14.7 µM) | < 4 µg/mL | 100% |  |  | 
7 | CO/N=C/c1cc(N(C)C)c2c(c1O)C(=O)C1=C(O)[C@]3(O)C(=O)C(C(N)=O)=C(O)[C@@H](N(C)C)[C@@H]3C[C@@H]1C2 [V, (4S,4aS,5aR,12aS)-4,7-Bis-dimethylamino-3,10,12,12a-tetrahydroxy-9-(methoxyimino-methyl)-1,11-dioxo-1,4,4a,5,5a,6,11,12a-octahydro-naphthacene-2-carboxylic acid amide] | < 35 µg/mL | < 35 µg/mL | 1.4 mg/kg | < 4 µg/mL | < 4 µg/mL | < 4 µg/mL | > 8 µg/mL | > 8 µg/mL | 4 to 8 µg/mL (≈ 7.77 to 15.5 µM) | < 4 µg/mL |  |  |  | 
